In US20040171090A1, “Anti-tumor antigen against HTLV-I tumor or antigen epitope thereof” (priority 2001, published 2004):
Peptide text beside a SMILES is read from it.

How the values were obtained:
[1] = system: HTLV-I-infected tumor cells, FPM1-V1AX; experiment: Vaccine effect: splenic T cells of immunized nu/+ rats transferred to nu/nu rats given FPM1-V1AX, tumor volume; format: in vivo, rat; details: nu/+ rats immunized subcutaneously twice, two-week interval, 100 μg peptide and/or ISS-ODN
[2] = system: HTLV-I-specific CTL cell lines; details: for cytotoxic activity of HTLV-I-specific CTL cell lines against target cells sensitized with peptide (FIG. 6): 15-24 mer peptides 10 μM, 37° C. 1 hour, release assay 6 hours; for cytotoxic activity of HTLV-I-specific CTL cell lines against target cells sensitized with peptide (FIG. 6) / cytotoxicity of long-term-cultured CTL cell lines against target cells sensitized with peptide (FIG. 7) / peptide concentration necessary to induce cytotoxic activity of the same extent as Tax 180-188: E/T 10; for cytotoxicity of long-term-cultured CTL cell lines against target cells sensitized with peptide (FIG. 7): peptides 10 μM; for peptide concentration necessary to induce cytotoxic activity of the same extent as Tax 180-188: G14 cells treated 1 hour with serially diluted peptide

Molecule: 5′-TGACTGTGAACGTTCGAGATGA-3′ [ISS-ODN]
- suppression effect on tumor proliferation by splenic T cells from immunized rats (tumor volume, FIG. 12) [1]: not recognized

Molecule: CC[C@H](C)[C@H](NC(=O)[C@H](CCCCN)NC(=O)[C@H](Cc1ccc(O)cc1)NC(=O)[C@H](CC(C)C)NC(=O)[C@H](CC(C)C)NC(=O)[C@H](CCC(=O)O)NC(=O)[C@H](CCC(=O)O)NC(=O)[C@@H](NC(=O)[C@H](CCCNC(=N)N)NC(=O)[C@H](CCCCN)NC(=O)[C@H](Cc1ccc(O)cc1)NC(=O)[C@@H]1CCCN1C(=O)[C@@H](NC(=O)[C@H](CC(N)=O)NC(=O)[C@@H](NC(=O)[C@H](CC(C)C)NC(=O)[C@H](Cc1ccccc1)NC(=O)[C@H](C)NC(=O)CNC(=O)[C@H](CC(C)C)NC(=O)[C@H](CCC(N)=O)NC(=O)CN)[C@@H](C)O)C(C)C)[C@@H](C)CC)C(=O)N[C@@H](CO)C(=O)N[C@@H](CC(C)C)C(=O)O [Tax 177-200]
- cytotoxic activity of HTLV-I-specific CTL cell lines against target cells sensitized with peptide (FIG. 6) ([2]; G14 cells): effectively dissolve
- cytotoxicity of long-term-cultured CTL cell lines against target cells sensitized with peptide (FIG. 7) ([2]; G14 cells): notably dissolved

Molecule: CC(C)C[C@H](NC(=O)[C@H](Cc1ccccc1)NC(=O)[C@H](C)N)C(=O)N[C@H](C(=O)N[C@@H](CC(N)=O)C(=O)N[C@H](C(=O)N1CCC[C@H]1C(=O)N[C@@H](Cc1ccc(O)cc1)C(=O)N[C@@H](CCCCN)C(=O)O)C(C)C)[C@@H](C)O [Tax 181-189] (H-AFLTNVPYK-OH; N-terminus and C-terminus assumed)
- peptide concentration necessary to induce cytotoxic activity of the same extent as Tax 180-188 [2]: 1 µM

Molecule: CC[C@H](C)[C@H](NC(=O)[C@H](CCCNC(=N)N)NC(=O)[C@H](CCCCN)NC(=O)[C@H](Cc1ccc(O)cc1)NC(=O)[C@@H]1CCCN1C(=O)[C@@H](NC(=O)[C@H](CC(N)=O)NC(=O)[C@@H](NC(=O)[C@H](CC(C)C)NC(=O)[C@H](Cc1ccccc1)NC(=O)[C@H](C)N)[C@@H](C)O)C(C)C)C(=O)N[C@@H](CCC(=O)O)C(=O)N[C@@H](CCC(=O)O)C(=O)N[C@@H](CC(C)C)C(=O)N[C@@H](CC(C)C)C(=O)O [Tax 181-195]
- cytotoxic activity of HTLV-I-specific CTL cell lines against target cells sensitized with peptide (FIG. 6) ([2]; G14 cells): effectively dissolve
- cytotoxicity of long-term-cultured CTL cell lines against target cells sensitized with peptide (FIG. 7) ([2]; G14 cells): notably dissolved

Molecule: CC(C)C[C@H](NC(=O)[C@@H](N)Cc1ccccc1)C(=O)N[C@H](C(=O)N[C@@H](CC(N)=O)C(=O)N[C@H](C(=O)N1CCC[C@H]1C(=O)N[C@@H](Cc1ccc(O)cc1)C(=O)N[C@@H](CCCCN)C(=O)N[C@@H](CCCNC(=N)N)C(=O)O)C(C)C)[C@@H](C)O [Tax 182-190] (H-FLTNVPYKR-OH; N-terminus and C-terminus assumed)
- peptide concentration necessary to induce cytotoxic activity of the same extent as Tax 180-188 [2]: 10 µM

Molecule: LGAFLTNVP [Tax 179-187]
- CTL sensitivity of target cells sensitized with 9 amino acid synthetic peptides (FIG. 8) ([2]; G14 cells, 9 mer peptides, same method as for the 15-24 mers): exhibited CTL sensitivity

Molecule: Tax 17-40: partially overlapping synthetic peptide (15-24 mers), partial peptide in the Tax protein (VYVFGDCVQGDWCPISGGLCSARL)
- cytotoxic activity of HTLV-I-specific CTL cell lines against target cells sensitized with peptide (FIG. 6) ([2]; G14 cells): low cytotoxic activity

Molecule: Tax 33-56: partially overlapping synthetic peptide (15-24 mers), partial peptide in the Tax protein (GGLCSARLHRHALLATCPEHQITW)
- cytotoxic activity of HTLV-I-specific CTL cell lines against target cells sensitized with peptide (FIG. 6) ([2]; G14 cells): low cytotoxic activity

Molecule: Tax 81-104: partially overlapping synthetic peptide (15-24 mers), partial peptide in the Tax protein (QRTSKTLKVLTPPITHTTPNIPPS)
- cytotoxic activity of HTLV-I-specific CTL cell lines against target cells sensitized with peptide (FIG. 6) ([2]; G14 cells): low cytotoxic activity

Molecule: Tax 97-120: partially overlapping synthetic peptide (15-24 mers), partial peptide in the Tax protein (TTPNIPPSFLQAMRKYSPFRNGYM)
- cytotoxic activity of HTLV-I-specific CTL cell lines against target cells sensitized with peptide (FIG. 6) ([2]; G14 cells): low cytotoxic activity
